Measurements as given in patent publication US10834946B2, “Flavor composition and edible compositions containing same” (Mars, Incorporated, priority 2013, dated 2020).
Square brackets hold non-standard residues; d marks the D form. Ends that are not written are not given here. pGlu = O=C1CC[C@@H](C(=O)O)N1

Tests used:
[1] = tested on: panelists (salt perception); test: Increased Salt Perception Protocol (descriptive sensory panel); assay type: in vivo, human; conditions: for Mean salt perception in mouth: scale anchored to 0.35% salt reference = 5.0; for Mean salt perception after expectoration: re-tasting of salt reference (0.35% salt, intensity 5.0)
Procedure: Descriptive Profiles (Flavor and Chemical Feeling Factors) of five use levels of a pGlu-Val-Leu flavor composition were determined. The five use levels were as follows:
Data was collected for the flavor and chemical feeling factors of the product in mouth for each of the five use levels according to the following protocol:
1. Each panelist tasted a salt reference (0.35% salt solution) with a reference salt intensity of 5.0 which provided a baseline for each panelist's Sensory Spectrum for salt intensity.
2. Each panelist tasted a test sample (0.1 ppb, 0.5 ppb, 1.0 ppb, 10.0 ppb or 40.0 ppb all in 0.2% NaCl solution). Only one sample was tasted per session.
3. Each panelist re-tasted the salt reference (5.0 intensity) and rated it for salt intensity as well as any other basic taste, chemical feeling factor, or aromatic perceived. Thus, any increased salt perception as a result of the test sample would be determined, as well as any other perceptions present. Return to Baseline Protocol
The test samples were formulated as follows: […]

[2] = tested on: panelists (salt perception); test: Return to Baseline Protocol (saltiness aftertaste, sensory panel); assay type: in vivo, human; conditions: salt reference re-tasted at 1 minute intervals until intensity 5.0
Procedure: After evaluating the sample for salt and other perceptions (step 3 above), each panelist re-tasted the salt reference (5.0 intensity) at 1 minute intervals until their perception of the saltiness intensity of the reference returned to 5.0. Each panelist recorded salt intensity at each interval and took qualitative notes on other perceptions seen in aftertaste.

Substance: [pGlu]-Val-Leu
- Mean salt perception in mouth ([1]; 0.1 ppb peptide in 0.2% NaCl solution): 2.3
- Mean salt perception after expectoration ([1]; 0.1 ppb sample): 6.8
- perception of salt in-mouth as concentration increased ([1]; 0.1 to 40.0 ppb in 0.2% NaCl solution): did not significantly increase
- Mean salt perception in mouth ([1]; 0.5 ppb peptide in 0.2% NaCl solution): 2.8
- Mean salt perception after expectoration ([1]; 0.5 ppb sample): 6.4
- Mean salt perception in mouth ([1]; 1.0 ppb peptide in 0.2% NaCl solution): 2.3
- Mean salt perception after expectoration ([1]; 1.0 ppb sample): 7.5
- Mean salt perception in mouth ([1]; 10.0 ppb peptide in 0.2% NaCl solution): 3.1
- Mean salt perception after expectoration ([1]; 10.0 ppb sample): 8.2
- Mean salt perception in mouth ([1]; 40.0 ppb peptide in 0.2% NaCl solution): 2.8
- Mean salt perception after expectoration ([1]; 40.0 ppb sample): 8.3
- Salt perception after expectoration ([1]; all samples (0.1 to 40.0 ppb), versus reference intensity 5.0): increased
- Mean time needed to return to baseline ([2]; 0.1 ppb sample): 7.6 min
- Mean time needed to return to baseline ([2]; 0.5 ppb sample): 9.5 min
- Mean time needed to return to baseline ([2]; 1.0 ppb sample): 8.7 min
- Mean time needed to return to baseline ([2]; 10.0 ppb sample): 8.6 min
